The structures appear in SMILES notation.

The subject of one assay is 20032 (donor line of iPSC-derived cardiomyocytes). As to the kind of experiment: POD (EC95) for loss of peak frequency (asystole) vs vehicle; higher = less potent (higher point of departure). Conditions: exposure time: 90 min. The protocol: (§1)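 Human iPSC-derived cardiomyocytes from 16 donors were exposed for 90 min at 37 °C to each PFAS at 0.1, 1, 10 and 100 µM in 0.5% DMSO, 384-well plates. Kinetic Ca2+ flux (FLIPR) and Hoechst nuclei counts were normalised to vehicle wells and fitted with a hierarchical Bayesian Hill model to give donor-specific PODs: EC05 for beat-rate increase or decrease and for decay-to-rise ratio increase (QT proxy), EC95 for peak-frequency loss (asystole), EC10 for total cell number loss. 0.03 µM is the lower bound.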
Turning to `NC(=O)C(F)(F)C(F)(F)C(F)(F)C(F)(F)F` [Nonafluoropentanamide], the POD vs vehicle was more than 100 µM.

On to `NC(=O)C(F)(F)C(F)(F)C(F)(F)C(F)(F)C(N)=O` [Octafluoroadipamide], for which the POD vs vehicle is more than 100 µM.

On to `O=C(O)C(F)(F)C(F)(F)C(F)(F)C(F)(F)C(=O)O` [Octafluoroadipic_acid], for which the POD vs vehicle was more than 100 µM.

`O=C(O)C(F)(F)C(F)(F)C(F)(F)OC(F)(F)F` [Perfluoro(4-methoxybutanoic)_acid] came in with a POD vs vehicle of more than 100 µM.

Turning to `O=C(O)C(F)(F)OC(F)(F)C(F)(F)OC(F)(F)C(F)(F)OC(F)(F)C(F)(F)C(F)(F)C(F)(F)F` [Perfluoro-3,6,9-trioxatridecanoic_acid], the POD vs vehicle was more than 100 µM.

Molecule `O=C(O)C(F)(F)OC(F)(F)C(F)(F)OC(F)(F)F` [Perfluoro-3,6-dioxaheptanoic_acid] had a POD vs vehicle of more than 100 µM.

As to `O=C(O)C(F)(F)OC(F)(F)C(F)(F)OC(F)(F)C(=O)O` [Perfluoro-3,6-dioxaoctane-1,8-dioic_acid], the POD vs vehicle was more than 100 µM.

Consider `O=C(O)C(F)(F)C(F)(F)OC(F)(F)F` [Perfluoro-3-methoxypropanoic_acid], for which the POD vs vehicle was more than 100 µM.

On to `O=C(O)C(F)(F)C(F)(F)C(F)(F)OC(F)(C(F)(F)F)C(F)(F)F` [Perfluoro-4-isopropoxybutanoic_acid], for which the POD vs vehicle is more than 100 µM.

`O=S(=O)(O)C(F)(F)C(F)(F)C(F)(F)C(F)(F)F` [Perfluorobutanesulfonic_acid]: the POD vs vehicle was more than 100 µM.

The subject of the next assay is 20084 (donor line of iPSC-derived cardiomyocytes). The description is as above. Conditions: exposure time: 90 min. The method, then:
as §1
For the molecule `O=S(=O)(O)CCC(F)(F)C(F)(F)C(F)(F)C(F)(F)C(F)(F)C(F)(F)C(F)(F)C(F)(F)F` [8:2 Fluorotelomer sulfonic acid], the POD vs vehicle is more than 100 µM.

Molecule `O=C(O)C(F)(F)C(F)(F)C(F)(F)C(F)(F)C(F)(F)C(F)(F)C(F)(F)C(F)(F)Cl` [9-Chloro-perfluorononanoic_acid] came in with a POD vs vehicle of more than 100 µM.

Turning to `O=P(O)(O)CCC(F)(F)C(F)(F)C(F)(F)C(F)(F)C(F)(F)C(F)(F)C(F)(F)C(F)(F)F` [((Perfluorooctyl)ethyl)phosphonic_acid], the POD vs vehicle is more than 100 µM.

As to `O=C([O-])C(F)(F)C(F)(F)C(F)(F)C(F)(F)C(F)(F)C(F)(F)C(F)(F)F.[NH4+]` [Ammonium_perfluorooctanoate], the POD vs vehicle was more than 100 µM.

For the molecule `OCC(F)(F)C(F)(F)C(F)(F)C(F)(F)C(F)(F)C(F)F` [Dodecafluoroheptanol], the POD vs vehicle turned out to be 48.6 µM.

The molecule `OCC(F)(F)OC(F)(F)C(F)(F)OC(F)(F)C(F)(F)OC(F)(F)F` [Fluorinated_triethylene_glycol_monomethyl_ether] displayed a POD vs vehicle of more than 100 µM.

`OCC(F)(F)C(F)(F)C(F)(F)F` [Heptafluorobutanol] returned a POD vs vehicle of more than 100 µM.

Molecule `NC(=O)C(F)(F)C(F)(F)C(F)(F)F` [Heptafluorobutyramide] returned a POD vs vehicle of more than 100 µM.

Take `OCC(F)(F)C(F)(F)C(F)(F)CO` [Hexafluoroamylene_glycol]: the POD vs vehicle was more than 100 µM.

Turning to `COC(=O)C(F)(F)C(F)(F)OC(F)(C(F)(F)F)C(F)(F)OC(F)=C(F)F` (stereo not given) [Methyl_perfluoro(3-(1-ethenyloxypropan-2-yloxy)propanoate)], the POD vs vehicle was more than 100 µM.

Take `NC(=O)C(F)(F)C(F)(F)C(F)(F)C(F)(F)F` [Nonafluoropentanamide]: the POD vs vehicle was more than 100 µM.

In turn, `NC(=O)C(F)(F)C(F)(F)C(F)(F)C(F)(F)C(N)=O` [Octafluoroadipamide] came in with a POD vs vehicle of more than 100 µM.

Molecule `O=C(O)C(F)(F)C(F)(F)C(F)(F)C(F)(F)C(=O)O` [Octafluoroadipic_acid] gave a POD vs vehicle of more than 100 µM.

With `O=C(O)C(F)(F)C(F)(F)C(F)(F)OC(F)(F)F` [Perfluoro(4-methoxybutanoic)_acid], the POD vs vehicle is more than 100 µM.

`O=C(O)C(F)(F)OC(F)(F)C(F)(F)OC(F)(F)C(F)(F)OC(F)(F)C(F)(F)C(F)(F)C(F)(F)F` [Perfluoro-3,6,9-trioxatridecanoic_acid] displayed a POD vs vehicle of more than 100 µM.

As to `O=C(O)C(F)(F)OC(F)(F)C(F)(F)OC(F)(F)F` [Perfluoro-3,6-dioxaheptanoic_acid], the POD vs vehicle is more than 100 µM.

`O=C(O)C(F)(F)OC(F)(F)C(F)(F)OC(F)(F)C(=O)O` [Perfluoro-3,6-dioxaoctane-1,8-dioic_acid] showed a POD vs vehicle of more than 100 µM.

As to `O=C(O)C(F)(F)C(F)(F)OC(F)(F)F` [Perfluoro-3-methoxypropanoic_acid], the POD vs vehicle was more than 100 µM.

Turning to `O=C(O)C(F)(F)C(F)(F)C(F)(F)OC(F)(C(F)(F)F)C(F)(F)F` [Perfluoro-4-isopropoxybutanoic_acid], the POD vs vehicle was more than 100 µM.

`O=S(=O)(O)C(F)(F)C(F)(F)C(F)(F)C(F)(F)F` [Perfluorobutanesulfonic_acid]: the POD vs vehicle is more than 100 µM.

Another assay concerns 30145 (donor line of iPSC-derived cardiomyocytes). The description is as above. To be noted: exposure time: 90 min. The method, then: as §1
Regarding `O=S(=O)(O)CCC(F)(F)C(F)(F)C(F)(F)C(F)(F)C(F)(F)C(F)(F)C(F)(F)C(F)(F)F` [8:2 Fluorotelomer sulfonic acid], the POD vs vehicle came to 89.3 µM.

As to `O=C(O)C(F)(F)C(F)(F)C(F)(F)C(F)(F)C(F)(F)C(F)(F)C(F)(F)C(F)(F)Cl` [9-Chloro-perfluorononanoic_acid], the POD vs vehicle was more than 100 µM.

`O=P(O)(O)CCC(F)(F)C(F)(F)C(F)(F)C(F)(F)C(F)(F)C(F)(F)C(F)(F)C(F)(F)F` [((Perfluorooctyl)ethyl)phosphonic_acid] had a POD vs vehicle of more than 100 µM.

`O=C([O-])C(F)(F)C(F)(F)C(F)(F)C(F)(F)C(F)(F)C(F)(F)C(F)(F)F.[NH4+]` [Ammonium_perfluorooctanoate] yielded a POD vs vehicle of more than 100 µM.

Regarding `OCC(F)(F)C(F)(F)C(F)(F)C(F)(F)C(F)(F)C(F)F` [Dodecafluoroheptanol], the POD vs vehicle stood at 47.9 µM.

`OCC(F)(F)OC(F)(F)C(F)(F)OC(F)(F)C(F)(F)OC(F)(F)F` [Fluorinated_triethylene_glycol_monomethyl_ether] registered a POD vs vehicle of more than 100 µM.

In the case of `OCC(F)(F)C(F)(F)C(F)(F)F` [Heptafluorobutanol], the POD vs vehicle was more than 100 µM.

As to `NC(=O)C(F)(F)C(F)(F)C(F)(F)F` [Heptafluorobutyramide], the POD vs vehicle is more than 100 µM.

On to `OCC(F)(F)C(F)(F)C(F)(F)CO` [Hexafluoroamylene_glycol], for which the POD vs vehicle is more than 100 µM.

`COC(=O)C(F)(F)C(F)(F)OC(F)(C(F)(F)F)C(F)(F)OC(F)=C(F)F` (stereo not given) [Methyl_perfluoro(3-(1-ethenyloxypropan-2-yloxy)propanoate)] returned a POD vs vehicle of more than 100 µM.

`NC(=O)C(F)(F)C(F)(F)C(F)(F)C(F)(F)F` [Nonafluoropentanamide]: the POD vs vehicle is more than 100 µM.

Regarding `NC(=O)C(F)(F)C(F)(F)C(F)(F)C(F)(F)C(N)=O` [Octafluoroadipamide], the POD vs vehicle is more than 100 µM.

Molecule `O=C(O)C(F)(F)C(F)(F)C(F)(F)C(F)(F)C(=O)O` [Octafluoroadipic_acid] displayed a POD vs vehicle of more than 100 µM.

Consider `O=C(O)C(F)(F)C(F)(F)C(F)(F)OC(F)(F)F` [Perfluoro(4-methoxybutanoic)_acid], for which the POD vs vehicle is more than 100 µM.

Turning to `O=C(O)C(F)(F)OC(F)(F)C(F)(F)OC(F)(F)C(F)(F)OC(F)(F)C(F)(F)C(F)(F)C(F)(F)F` [Perfluoro-3,6,9-trioxatridecanoic_acid], the POD vs vehicle is more than 100 µM.

In turn, `O=C(O)C(F)(F)OC(F)(F)C(F)(F)OC(F)(F)F` [Perfluoro-3,6-dioxaheptanoic_acid] showed a POD vs vehicle of more than 100 µM.

`O=C(O)C(F)(F)OC(F)(F)C(F)(F)OC(F)(F)C(=O)O` [Perfluoro-3,6-dioxaoctane-1,8-dioic_acid]: the POD vs vehicle was more than 100 µM.

Molecule `O=C(O)C(F)(F)C(F)(F)OC(F)(F)F` [Perfluoro-3-methoxypropanoic_acid] displayed a POD vs vehicle of more than 100 µM.

In turn, `O=C(O)C(F)(F)C(F)(F)C(F)(F)OC(F)(C(F)(F)F)C(F)(F)F` [Perfluoro-4-isopropoxybutanoic_acid] registered a POD vs vehicle of more than 100 µM.

`O=S(=O)(O)C(F)(F)C(F)(F)C(F)(F)C(F)(F)F` [Perfluorobutanesulfonic_acid] displayed a POD vs vehicle of more than 100 µM.
